Measurements published in patent US20130005721A1, “INDOLIZINE INHIBITORS OF 5-LIPOXYGENASE” (PANMIRA PHARMACEUTICALS, LLC, priority 2009, published 2013).

system: human leukocytes (LTB4 production, calcium ionophore stimulated); experiment: Human Leukocyte LTB4 Inhibition Assay; type: cell-based; conditions: Leukocyte, LTB4 by ELISA, read-out: LTB4 HLA IC50
Method in brief: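 Human peripheral leukocytes (1.25×10^5 cells/ml) were isolated by dextran sedimentation and hypotonic RBC lysis. They were preincubated with drug 5 min at 37 °C, then stimulated 30 min at 37 °C with calcium ionophore […] (working solution 1.25 mM). Supernatant LTB4 was measured by ELISA. IC50 versus vehicle came from nonlinear regression of % inhibition against log concentration.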

CCOC(=O)c1c(Br)c2cc(CNc3nnc(C(O)(CC)C(F)(F)F)o3)ccn2c1-c1ccc(F)cc1 (stereo not drawn) [Compound 1-15, 1-Bromo-3-(4-fluoro-phenyl)-7-{[5-(1-hydroxy-1-trifluoromethyl-propyl)-[1,3,4]oxadiazol-2-ylamino]-methyl}-indolizine-2-carboxylic acid ethyl ester] and CCC(O)(c1cn(Cc2ccn3c(-c4ccc(F)cc4)c(C(=O)N(C)OC)cc3c2)nn1)C(F)(F)F (stereo not drawn) [Compound 1-51, 3-(4-Fluoro-phenyl)-7-[4-(1-hydroxy-1-trifluoromethyl-propyl)-[1,2,3]triazol-1-ylmethyl]-indolizine-2-carboxylic acid methoxy-methyl-amide] cannot be ordered by IC50: less than 300 nM for the first, less than 300 nM for the second.

Going from CCC(O)(c1cn(Cc2ccn3c(-c4ccc(F)cc4)c(-c4nn[nH]n4)cc3c2)nn1)C(F)(F)F (stereo not drawn) [Compound 1-23, 1,1,1-Trifluoro-2-{1-[3-(4-fluoro-phenyl)-2-(2H-tetrazol-5-yl)-indolizin-7-ylmethyl]-1H-[1,2,3]triazol-4-yl}-butan-2-ol] to CCC(O)(c1cn(Cc2ccn3c(-c4ccc(F)cc4)c(CS(C)(=O)=O)cc3c2)nn1)C(F)(F)F (stereo not drawn) [Compound 1-34, 1,1,1-Trifluoro-2-{1-[3-(4-fluoro-phenyl)-2-methanesulfonylmethyl-indolizin-7-ylmethyl]-1H-[1,2,3]triazol-4-yl}-butan-2-ol], the IC50 falls from greater than 1000 nM to less than 300 nM. The second is the more potent here.

First: CCOC(=O)c1c(C(=O)C(F)(F)F)c2cc(Cn3cc(C(CC)(OC(=O)c4ccc([N+](=O)[O-])cc4)C(F)(F)F)nn3)ccn2c1-c1ccc(OC)nc1 (single isomer, unassigned) [Compound 1-84, 3-(6-Methoxy-pyridin-3-yl)-7-{4-[1-(4-nitro-benzoyloxy)-1-trifluoromethyl-propyl]-[1,2,3]triazol-1-ylmethyl}-1-(2,2,2-trifluoro-acetyl)-indolizine-2-carboxylic acid ethyl ester]
Second: CCOC(=O)c1cc2cc(Cn3cc(C(O)(CC)C(F)(F)F)nn3)ccn2c1-c1cccc(F)c1 (stereo not drawn) [Compound 1-46, 3-(3-Fluoro-phenyl)-7-[4-(1-hydroxy-1-trifluoromethyl-propyl)-[1,2,3]triazol-1-ylmethyl]-indolizine-2-carboxylic acid ethyl ester]
The IC50 of the first is higher: 300 to 1000 nM for the first, less than 300 nM for the second. The second is the more potent here.
